Literature values as cited in publication PMC7357848 (Journal of Chemical Information and Modeling, 2020).

Tested on: hERG
Settings: IC50 with SP over IC50 with Protocol-O; ref 5 (Yao et al. 2005)

## BeKm-1
  IC50 ratio: 10.3
